27 compounds from US10246453B2, “Benzenesulfonamide compounds and their use as therapeutic agents” (Xenon Pharmaceuticals Inc., priority 2016, dated 2019) can be followed below.

Series [1] concerns the target NaV1.6 (Homo sapiens (Human), UniProt Q9UQD0). The series can be described thus: Sodium Influx Assay (Flux), NaV1.6.
Series [2] deals with NaV1.1 (Homo sapiens (Human), UniProt P35498). The series can be described thus: Sodium Influx Assay (Flux), NaV1.1. The settings on record: Trex HEK293 cells, ANG2 dye; arithmetic mean. It counts as cell-based.
The target of series [3] is NaV1.5 (Homo sapiens (Human), UniProt Q14524). Briefly: Sodium Influx Assay (Flux), NaV1.5. The settings on record: read-out: Flux NaV1.5 IC50; Trex HEK293 cells, ANG2 dye; arithmetic mean.
Setting [4] is: read-out: Flux NaV1.6 IC50, Trex HEK293 cells, ANG2 dye, arithmetic mean.

The structures appear in SMILES notation. Structures can show the parent of a compound that is named as a salt. Where two headings read alike, the source gives them in different places.

Sequence of NaV1.5 (Q14524 other isoform, or with tags, fused parts or gaps): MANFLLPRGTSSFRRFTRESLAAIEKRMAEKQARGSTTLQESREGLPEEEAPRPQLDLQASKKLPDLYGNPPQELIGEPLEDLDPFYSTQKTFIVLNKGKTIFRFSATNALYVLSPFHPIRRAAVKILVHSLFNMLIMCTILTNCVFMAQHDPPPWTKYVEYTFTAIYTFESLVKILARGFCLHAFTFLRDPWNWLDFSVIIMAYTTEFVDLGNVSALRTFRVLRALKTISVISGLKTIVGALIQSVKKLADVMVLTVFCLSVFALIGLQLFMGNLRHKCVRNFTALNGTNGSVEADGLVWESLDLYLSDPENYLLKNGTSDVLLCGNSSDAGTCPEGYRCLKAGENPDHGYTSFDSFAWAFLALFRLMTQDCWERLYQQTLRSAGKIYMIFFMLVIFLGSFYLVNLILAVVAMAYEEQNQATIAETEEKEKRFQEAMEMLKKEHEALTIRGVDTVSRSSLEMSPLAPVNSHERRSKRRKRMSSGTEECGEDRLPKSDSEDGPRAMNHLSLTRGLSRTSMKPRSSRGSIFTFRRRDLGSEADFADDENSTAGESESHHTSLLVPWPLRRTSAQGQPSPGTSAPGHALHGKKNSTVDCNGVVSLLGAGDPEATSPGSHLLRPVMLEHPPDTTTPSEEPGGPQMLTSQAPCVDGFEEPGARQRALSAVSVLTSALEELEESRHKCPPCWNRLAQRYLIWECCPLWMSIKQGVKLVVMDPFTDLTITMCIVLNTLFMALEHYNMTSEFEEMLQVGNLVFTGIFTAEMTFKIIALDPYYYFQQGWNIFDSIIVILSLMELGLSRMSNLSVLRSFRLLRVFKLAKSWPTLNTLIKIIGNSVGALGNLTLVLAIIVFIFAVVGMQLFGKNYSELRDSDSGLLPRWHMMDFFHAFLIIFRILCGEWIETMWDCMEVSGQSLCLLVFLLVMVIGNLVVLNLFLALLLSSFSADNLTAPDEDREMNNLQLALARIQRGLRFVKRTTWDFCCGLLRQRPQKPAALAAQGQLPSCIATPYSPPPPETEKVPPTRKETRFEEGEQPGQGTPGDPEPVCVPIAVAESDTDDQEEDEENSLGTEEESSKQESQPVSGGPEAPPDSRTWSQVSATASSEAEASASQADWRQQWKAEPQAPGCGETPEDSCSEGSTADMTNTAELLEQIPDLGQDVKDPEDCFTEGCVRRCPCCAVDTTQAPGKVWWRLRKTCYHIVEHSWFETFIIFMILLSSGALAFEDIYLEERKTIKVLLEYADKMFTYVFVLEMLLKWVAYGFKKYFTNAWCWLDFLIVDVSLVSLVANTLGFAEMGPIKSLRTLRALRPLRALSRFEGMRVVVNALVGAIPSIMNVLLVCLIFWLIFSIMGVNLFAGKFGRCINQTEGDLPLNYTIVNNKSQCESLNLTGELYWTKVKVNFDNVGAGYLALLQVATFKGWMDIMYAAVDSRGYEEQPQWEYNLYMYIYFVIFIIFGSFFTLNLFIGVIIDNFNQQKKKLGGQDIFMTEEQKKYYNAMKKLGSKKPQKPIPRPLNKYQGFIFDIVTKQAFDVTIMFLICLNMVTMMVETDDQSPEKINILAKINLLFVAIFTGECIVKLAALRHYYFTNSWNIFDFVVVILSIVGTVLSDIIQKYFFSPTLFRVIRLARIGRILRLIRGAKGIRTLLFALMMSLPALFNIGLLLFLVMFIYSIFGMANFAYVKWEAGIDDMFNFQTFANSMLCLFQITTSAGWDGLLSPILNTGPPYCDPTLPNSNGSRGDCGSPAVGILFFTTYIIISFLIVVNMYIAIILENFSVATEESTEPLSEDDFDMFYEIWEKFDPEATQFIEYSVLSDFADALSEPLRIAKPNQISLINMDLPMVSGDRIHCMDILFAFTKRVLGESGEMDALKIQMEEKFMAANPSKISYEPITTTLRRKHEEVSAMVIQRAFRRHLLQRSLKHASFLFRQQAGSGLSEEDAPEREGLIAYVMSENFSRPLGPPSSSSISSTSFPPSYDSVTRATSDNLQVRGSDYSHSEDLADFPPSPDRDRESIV

As usually defined, the IC50 is the concentration that gives 50% inhibition. Consider `C[C@@H]1CN(Cc2ccccc2F)CC[C@@H]1Oc1ccc(S(=O)(=O)Nc2nccs2)cc1Cl` (relative stereo) [Example 10A, 3-chloro-4-((cis-1-(2-fluorobenzyl)-3-methylpiperidin-4-yl)oxy)-N-(thiazol-2-yl)benzenesulfonamide], for which, in series [1], the IC50 stood at 1.27 µM.
The same measure, in the same setting: under `C[C@@H]1CN(Cc2ccccc2F)CC[C@H]1Oc1ccc(S(=O)(=O)Nc2nccs2)cc1Cl` (relative stereo) [Example 10B, 3-chloro-4-((trans-1-(2-fluorobenzyl)-3-methylpiperidin-4-yl)oxy)-N-(thiazol-2-yl)benzenesulfonamide] stands 1.16 µM.
In the case of `C[C@H]1C[C@@H](Oc2ccc(S(=O)(=O)Nc3nccs3)cc2Cl)CCN1Cc1ccccc1` (relative stereo) [Example 72, 4-((cis-1-benzyl-2-methylpiperidin-4-yl)oxy)-3-chloro-N-(thiazol-2-yl)benzenesulfonamide], the IC50 amounted to 6.81 µM in series [2], 13.5 µM in series [3] and 6.07 µM in series [1] (setting [4]).
Turning to `C[C@@H]1C[C@@H](Oc2ccc(S(=O)(=O)Nc3nccs3)cc2Cl)CCN1Cc1ccccc1` (relative stereo) [Example 73, 4-((trans-1-benzyl-2-methylpiperidin-4-yl)oxy)-3-chloro-N-(thiazol-2-yl)benzenesulfonamide], the figures for the IC50 in series [2], in series [3] and in series [1] (setting [4]) were 5.85 µM, 13.1 µM and 1.88 µM, respectively.
`C[C@@H]1CN(Cc2ccccc2)C[C@@H]1Nc1ccc(S(=O)(=O)Nc2nccs2)cc1Cl` (relative stereo) [Example 75, 4-((cis-1-benzyl-4-methylpyrrolidin-3-yl)amino)-3-chloro-N-(thiazol-2-yl)benzenesulfonamide]: the IC50 turned out to be 4.19 µM in series [2], 8.99 µM in series [3] and 0.661 µM in series [1] (setting [4]).
For `CC1(C)CNCCC1Oc1ccc(S(=O)(=O)Nc2ncns2)cc1Cl` (centres unmarked) [Example 1, 3-chloro-4-((3,3-dimethylpiperidin-4-yl)oxy)-N-(1,2,4-thiadiazol-5-yl)benzenesulfonamide 2,2,2-trifluoroacetate], the IC50 in series [2] is > 30 µM; in series [3], > 30 µM; in series [1] (setting [4]), 10.3 µM.
`Cc1cc(C)cc(CN2CCC(Oc3ccc(S(=O)(=O)Nc4ncns4)cc3Cl)C(C)(C)C2)c1` (centres unmarked) [Example 3, 3-chloro-4-((1-(3,5-dimethylbenzyl)-3,3-dimethylpiperidin-4-yl)oxy)-N-(1,2,4-thiadiazol-5-yl)benzenesulfonamide 2,2,2-trifluoroacetate]: the half-inhibitory concentration (IC50) is 20.8 µM in series [2], 6.17 µM in series [3] and 6.59 µM in series [1] (setting [4]).
Regarding `CC1(C)CN(Cc2cc(Cl)cc(Cl)c2)CCC1Oc1ccc(S(=O)(=O)Nc2ncns2)cc1Cl` (centres unmarked) [Example 4, 3-chloro-4-((1-(3,5-dichlorobenzyl)-3,3-dimethylpiperidin-4-yl)oxy)-N-(1,2,4-thiadiazol-5-yl)benzenesulfonamide 2,2,2-trifluoroacetate], the IC50 in series [2] was > 30 µM; in series [3], 11 µM; in series [1] (setting [4]), > 30 µM.
Regarding `O=S(=O)(Nc1nccs1)c1ccc(OC2CCN(Cc3cccc(OC(F)F)c3)CC2)c(Cl)c1` [Example 5, 3-chloro-4-((1-(3-(difluoromethoxy)benzyl)piperidin-4-yl)oxy)-N-(thiazol-2-yl)benzenesulfonamide], the IC50 in series [2] is 6.3 µM; in series [3], 4.37 µM; in series [1] (setting [4]) it was 1.36 µM.
Take `O=S(=O)(Nc1nccs1)c1ccc(OC2CCN(CC3CCCCC3)CC2)c(Cl)c1` [Example 6, 3-chloro-4-((1-(cyclohexylmethyl)piperidin-4-yl)oxy)-N-(thiazol-2-yl)benzenesulfonamide 2,2,2-trifluoroacetate]: the IC50 in series [2] is 12.2 µM; in series [3] it was > 30 µM; in series [1] (setting [4]), 7.52 µM.
The matching figures for `O=S(=O)(Nc1nccs1)c1ccc(OC2CCN(C3CCCCC3)CC2)c(Cl)c1` [Example 7, 3-chloro-4-((1-cyclohexylpiperidin-4-yl)oxy)-N-(thiazol-2-yl)benzenesulfonamide 2,2,2-trifluoroacetate]: > 30 µM, > 30 µM and 27.3 µM.
As for `O=S(=O)(Nc1nccs1)c1ccc(OC2CCN(Cc3ccccc3C(F)(F)F)CC2)c(Cl)c1` [Example 12, 3-chloro-N-(thiazol-2-yl)-4-((1-(2-(trifluoromethyl)benzyl)piperidin-4-yl)oxy)benzenesulfonamide], the IC50 turned out to be 13.3 µM in series [2], 6.35 µM in series [3] and 13.3 µM in series [1] (setting [4]).
`O=S(=O)(Nc1nccs1)c1ccc(OC2CCN(Cc3ccccc3Cl)CC2)c(Cl)c1` [Example 13, 3-chloro-4-((1-(2-chlorobenzyl)piperidin-4-yl)oxy)-N-(thiazol-2-yl)benzenesulfonamide]: the IC50 was determined as 6.83 µM in series [2], 5.09 µM in series [3] and 1.7 µM in series [1] (setting [4]).
Take `Cc1ccnc(CN2CCC(Oc3ccc(S(=O)(=O)Nc4nccs4)cc3Cl)CC2)c1` [Example 14, 3-chloro-4-((1-((4-methylpyridin-2-yl)methyl)piperidin-4-yl)oxy)-N-(thiazol-2-yl)benzenesulfonamide]: the figures for the IC50 in series [2], in series [3] and in series [1] (setting [4]) were > 30 µM, 10.7 µM and 0.878 µM, respectively.
In the same order, the values of `O=S(=O)(Nc1nccs1)c1ccc(O[C@H]2C[C@H]3CC[C@@H](C2)N3Cc2ccccc2)c(Cl)c1` [Example 15, 4-(((1R,3r,5S)-8-benzyl-8-azabicyclo[3.2.1]octan-3-yl)oxy)-3-chloro-N-(thiazol-2-yl)benzenesulfonamide] are 9.23 µM, 23.9 µM and 2.57 µM.
For the compound `O=S(=O)(Nc1nccs1)c1cc(Cl)c(O[C@@H]2C[C@H]3CC[C@@H](C2)N3Cc2cccc(Cl)c2)cc1F` [Example 18, 5-chloro-4-(((1R,3s,5S)-8-(3-chlorobenzyl)-8-azabicyclo[3.2.1]octan-3-yl)oxy)-2-fluoro-N-(thiazol-2-yl)benzenesulfonamide 2,2,2-trifluoroacetate], the IC50 in series [2] was > 30 µM; in series [3] it was > 30 µM; in series [1] (setting [4]) it was 1.06 µM.
Take `CC1(Oc2ccc(S(=O)(=O)Nc3nccs3)cc2Cl)CCN(Cc2ccccc2)CC1` [Example 19, 4-((1-benzyl-4-methylpiperidin-4-yl)oxy)-3-chloro-N-(thiazol-2-yl)benzenesulfonamide]: the IC50 in series [2] was 4.96 µM; in series [3] it was 4.68 µM; in series [1] (setting [4]) it was 3.17 µM.
On to `CC1(Oc2ccc(S(=O)(=O)Nc3nccs3)cc2Cl)CCN(Cc2cccc(Cl)c2)CC1` [Example 20, 3-chloro-4-((1-(3-chlorobenzyl)-4-methylpiperidin-4-yl)oxy)-N-(thiazol-2-yl)benzenesulfonamide], for which the IC50 in series [2] was found to be 5.93 µM; in series [3], 6.1 µM; in series [1] (setting [4]), 5.62 µM.
Turning to `CC(c1ccccc1)N1CCC(Oc2ccc(S(=O)(=O)Nc3nccs3)cc2Cl)CC1` (centres unmarked) [Example 52, 3-chloro-4-((1-(1-phenylethyl)piperidin-4-yl)oxy)-N-(thiazol-2-yl)benzenesulfonamide], the IC50 came to 14.4 µM in series [3] and 0.305 µM in series [1] (setting [4]).
With `Cc1cc(S(=O)(=O)Nc2cscn2)c(F)cc1N(C)[C@H]1CCN(Cc2ccccc2O)C1` [Example 113, (S)-2-fluoro-4-((1-(2-hydroxybenzyl)-pyrrolidin-3-yl)(methyl)amino)-5-methyl-N-(thiazol-4-yl)benzenesulfonamide], the results for the IC50 in series [2] and in series [1] (setting [4]) were 17.9 µM and 0.258 µM, respectively.
For `COc1cccc(CN2CC[C@H](N(C)c3cc(F)c(S(=O)(=O)Nc4cscn4)cc3Cl)C2)c1` [Example 219, (S)-5-chloro-2-fluoro-4-((1-(3-methoxybenzyl)pyrrolidin-3-yl)(methyl)amino)-N-(thiazol-4-yl)benzenesulfonamide], the IC50 in series [2] was 7.53 µM; in series [1] (setting [4]) it was 3.2 µM.
The matching figures for `O=S(=O)(Nc1cscn1)c1cc(Cl)c(OC2CCN(Cc3ccccc3)CC2)cc1F` [Example 238, 4-((1-benzylpiperidin-4-yl)oxy)-5-chloro-2-fluoro-N-(thiazol-4-yl)benzenesulfonamide 2,2,2-trifluoroacetate]: 27.8 µM and 2.1 µM.
Regarding `O=S(=O)(Nc1cscn1)c1ccc(O[C@@H]2C[C@H]3CC[C@@H](C2)N3Cc2cccc(C(F)F)c2)c(Cl)c1` [Example 256, 3-chloro-4-(((1R,3s,5S)-8-(3-(difluoromethyl)benzyl)-8-azabicyclo[3.2.1]octan-3-yl)oxy)-N-(thiazol-4-yl)benzenesulfonamide], in series [3], the IC50 came to 6.72 µM.
For the compound `Cc1cc(S(=O)(=O)Nc2cscn2)c(F)cc1N(C)[C@@H]1CCN(Cc2ccccc2)C1` [Example 272, (R)-4-((1-benzylpyrrolidin-3-yl)(methyl)amino)-2-fluoro-5-methyl-N-(thiazol-4-yl)benzenesulfonamide], the IC50 in series [1] (setting [4]) is 3.77 µM.
Turning to `Cc1cc(S(=O)(=O)Nc2cscn2)ccc1N(C)[C@H]1CCN(Cc2ccccc2)C1` [Example 284, (S)-4-((1-benzylpyrrolidin-3-yl)(methyl)amino)-3-methyl-N-(thiazol-4-yl)benzenesulfonamide 2,2,2-trifluoroacetate], the figures for the IC50 in series [2] and in series [1] (setting [4]) were 10.5 µM and 0.718 µM, respectively.
Consider `C[C@H](c1ccccc1)N1CCC(Oc2ccc(S(=O)(=O)Nc3ccon3)cc2Cl)CC1` [Example 305, (R)-3-chloro-N-(isoxazol-3-yl)-4-((1-(1-phenylethyl)piperidin-4-yl)oxy)benzenesulfonamide formate], for which the IC50 in series [3] was > 30 µM.
For the compound `Cc1cc(S(=O)(=O)Nc2cscn2)c(F)cc1N(C)[C@H]1CCN(Cc2cccc(F)c2)C1` [compound 157, (S)-2-fluoro-4-((1-(3-fluorobenzyl)pyrrolidin-3-yl)(methyl)amino)-5-methyl-N-(thiazol-4-yl)benzenesulfonamide], the IC50 turned out to be 18.6 µM in series [3] and 0.211 µM in series [1] (setting [4]).
